Our source for the IC50 values is patent US11472769B2, “SSAO inhibitors and use thereof” (Eccogene (Shanghai) Co., Ltd., priority 2019, dated 2022).

Structures are written as SMILES.

The experiment has as its target recombinant hSSAO (Homo sapiens (Human), UniProt Q16853). In words: SSAO Activity Assay (MAO-Glo assay kit). It counts as biochemical. To be noted: 40 μM substrate, 30 mins pre-incubation. The procedure: The biological activities of the compounds of the present application can be assessed with methods and assays known in the art. For example, the potency of the compounds of the present application can be evaluated with an SSAO Activity Assay. Briefly, compounds of the present application can be applied to recombinant hSSAO, hMAO-A, and hMAO-B isoforms and the amine oxidase activity of the enzymes are measured after the addition and subsequent oxidation of the luminogenic substrate (e.g., with the MAO-Glo assay kit from Promega). The IC50 can be calculated, for example, by fitting the dose response curve using a 4-parameter non-linear regression routine.
Amine oxidase activity of recombinant hSSAO, hMAO-A, and hMAO-B isoforms are measured using the MAO-Glo assay kit (Promega, V1402). Ten nL test compounds (with DMSO as vehicle, 0.1% v/v for hSSAO, hMAO-A and hMAO-B) were added into assay plates by Echo, and pre-incubated with 5 μL of enzyme for 30 mins at room temperature before the addition of 5 μL of luminogenic substrate. The substrate concentration is 40 μM for human recombinant SSAO, 40 μM for human recombinant MAO-A, and 4 μM for human recombinant MAO-B. The hSSAO and hMAO-A assays were conducted in the MAO-A reaction buffer in the kit, and the MAO-B assay was conducted in the MAO-B reaction buffer. Oxidation of the substrate was conducted for 1 hr, before the addition of detecting reagent according the manufacture's protocol. The IC50 value of the tested compounds was calculated by fitting the dose response curve using a 4-parameter non-linear regression routine.

recombinant hSSAO, sequence (Q16853 whole entry, canonical isoform): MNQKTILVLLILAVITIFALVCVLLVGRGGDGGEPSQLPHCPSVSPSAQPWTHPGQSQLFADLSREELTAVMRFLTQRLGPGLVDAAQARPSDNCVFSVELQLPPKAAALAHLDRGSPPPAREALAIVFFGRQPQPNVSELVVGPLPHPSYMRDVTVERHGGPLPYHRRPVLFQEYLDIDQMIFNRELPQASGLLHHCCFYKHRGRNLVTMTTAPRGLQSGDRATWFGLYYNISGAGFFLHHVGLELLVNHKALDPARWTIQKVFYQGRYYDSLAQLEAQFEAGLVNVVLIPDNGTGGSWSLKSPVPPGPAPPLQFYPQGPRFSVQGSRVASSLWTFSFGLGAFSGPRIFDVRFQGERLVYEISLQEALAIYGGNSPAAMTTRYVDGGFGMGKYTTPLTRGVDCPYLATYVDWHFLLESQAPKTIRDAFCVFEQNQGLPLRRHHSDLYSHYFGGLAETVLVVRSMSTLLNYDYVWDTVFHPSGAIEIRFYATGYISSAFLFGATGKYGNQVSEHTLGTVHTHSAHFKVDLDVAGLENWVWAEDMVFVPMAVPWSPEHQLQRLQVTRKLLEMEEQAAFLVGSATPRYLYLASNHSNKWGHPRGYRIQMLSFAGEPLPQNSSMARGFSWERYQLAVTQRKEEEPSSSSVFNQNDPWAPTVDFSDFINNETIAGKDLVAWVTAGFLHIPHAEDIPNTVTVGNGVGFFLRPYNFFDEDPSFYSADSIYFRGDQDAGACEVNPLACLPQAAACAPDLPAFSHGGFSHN

`COCC(COC)CS(=O)(=O)c1ccc(OC/C(=C/F)CN)cc1` [compound 25, (E)-3-fluoro-2-((4-((3-methoxy-2-(methoxymethyl)propyl)sulfonyl)phenoxy)methyl)prop-2-en-1-amine]: the 50% inhibitory concentration (IC50) fell in the range of 20 to 100 nM.

In the case of `NC/C(=C\F)COc1ccc(S(=O)(=O)Cn2ccccc2=O)cc1` [compound 121, (E)-1-(((4-((2-(aminomethyl)-3-fluoroallyl)oxy)phenyl)sulfonyl)methyl)pyridin-2(1H)-one], the IC50 lay in the range of 20 to 100 nM.

Regarding `CC(C)C(=O)N1CCC(C)(COCS(=O)(=O)c2ccc(OC/C(=C/F)CN)cc2)CC1` [compound 33, (E)-1-(4-((((4-((2-(aminomethyl)-3-fluoroallyl)oxy)phenyl)sulfonyl)methoxy)methyl)-4-methylpiperidin-1-yl)-2-methylpropan-1-one], the IC50 is 20 to 100 nM.

With `CC(C)(CN1CCOCC1)CS(=O)(=O)c1ccc(OC/C(=C/F)CN)cc1` [compound 115, (E)-2-((4-((2,2-dimethyl-3-morpholinopropyl)sulfonyl)phenoxy)methyl)-3-fluoroprop-2-en-1-amine], the IC50 lay within 20 to 100 nM.

Consider `NC/C(=C\F)COc1ccc(S(=O)(=O)CC2(O)CCOCC2)cc1` [compound 10, (E)-4-(((4-((2-(aminomethyl)-3-fluoroallyl)oxy)phenyl)sulfonyl)methyl)tetrahydro-2H-pyran-4-ol], for which the IC50 was 20 to 100 nM.

Turning to `N#CC1(COCS(=O)(=O)c2ccc(OC/C(=C/F)CN)cc2)CCOCC1` [compound 32, (E)-4-((((4-((2-(aminomethyl)-3-fluoroallyl)oxy)phenyl)sulfonyl)methoxy)methyl)tetrahydro-2H-pyran-4-carbonitrile], the half-inhibitory concentration (IC50) lay within 20 to 100 nM.

`CC(C)C(=O)Nc1ccc(CS(=O)(=O)c2ccc(OC/C(=C/F)CN)cc2)cc1` [compound 45, (E)-N-(4-(((4-((2-(aminomethyl)-3-fluoroallyl)oxy)phenyl)sulfonyl)methyl)phenyl)isobutyramide]: the half-maximal inhibitory concentration (IC50) was 20 to 100 nM.

Turning to `CC(C)C(=O)N1CCC(C)(CS(=O)(=O)c2ccc(OC/C(=C/F)CN)cc2)CC1` [compound 53, (E)-1-(4-(((4-((2-(aminomethyl)-3-fluoroallyl)oxy)phenyl)sulfonyl)methyl)-4-methylpiperidin-1-yl)-2-methylpropan-1-one], the 50% inhibitory concentration (IC50) lay within 20 to 100 nM.

In the case of `NC/C(=C\F)COc1ccc(S(=O)(=O)CC2CCOCC2)c(F)c1` [compound 6, (E)-3-fluoro-2-((3-fluoro-4-(((tetrahydro-2H-pyran-4-yl)methyl)sulfonyl)phenoxy)methyl) prop-2-en-1-amine], the IC50 lay in the range of 20 to 100 nM.

Consider `NC/C(=C\F)COc1ccc(S(=O)(=O)CC23CC(C(=O)NC4CCC4)(C2)C3)cc1` [compound 138, (E)-3-(((4-((2-(aminomethyl)-3-fluoroallyl)oxy)phenyl)sulfonyl)methyl)-N-cyclobutylbicyclo[1.1.1]pentane-1-carboxamide], for which the half-maximal inhibitory concentration (IC50) was 20 to 100 nM.

For `CCN(CC(C)CS(=O)(=O)c1ccc(OC/C(=C/F)CN)cc1)C(=O)C(C)C` (stereo not drawn) [compound 97, (E)-N-(3-((4-((2-(aminomethyl)-3-fluoroallyl)oxy)phenyl)sulfonyl)-2-methylpropyl)-N-ethylisobutyramide], the IC50 was 20 to 100 nM.

Regarding `NC/C(=C\F)COc1ccc(S(=O)(=O)CC23CCC(C(=O)NC4CCC4)(CC2)C3)cc1` [compound 143, (E)-4-(((4-((2-(aminomethyl)-3-fluoroallyl)oxy)phenyl)sulfonyl)methyl)-N-cyclobutylbicyclo[2.2.1]heptane-1-carboxamide], the IC50 was 20 to 100 nM.

Consider `CC(C)N(C)C(=O)C(C)(C)CS(=O)(=O)c1ccc(OC/C(=C/F)CN)cc1` [compound 95, (E)-3-((4-((2-(aminomethyl)-3-fluoroallyl)oxy)phenyl)sulfonyl)-N-isopropyl-N,2,2-trimethylpropanamide], for which the IC50 fell in the range of 100 to 500 nM.

In the case of `NC/C(=C\F)COc1ccc(S(=O)(=O)Cc2cnc(N3CCCC3)nc2)cc1` [compound 103, (E)-3-fluoro-2-((4-(((2-(pyrrolidin-1-yl)pyrimidin-5-yl)methyl)sulfonyl)phenoxy)methyl) prop-2-en-1-amine], the IC50 lay within 20 to 100 nM.

Consider `NC/C(=C\F)COc1ccc(S(=O)(=O)CN2CCCC2=O)cc1` [compound 117, (E)-1-(((4-((2-(aminomethyl)-3-fluoroallyl)oxy)phenyl)sulfonyl)methyl)pyrrolidin-2-one], for which the IC50 fell in the range of 100 to 500 nM.

For the compound `NC/C(=C\F)COc1ccc(S(=O)(=O)COC2CCOCC2)cc1` [compound 26, (E)-3-fluoro-2-((4-((((tetrahydro-2H-pyran-4-yl)oxy)methyl)sulfonyl)phenoxy)methyl)prop-2-en-1-amine], the IC50 was in the range of 20 to 100 nM.

With `NC/C(=C\F)COc1ccc(S(=O)(=O)CC23CCC(C(=O)N4CCC(F)(F)CC4)(CC2)CC3)cc1` [compound 63, (E)-(4-(((4-((2-(aminomethyl)-3-fluoroallyl)oxy)phenyl)sulfonyl)methyl)bicyclo[2.2.2]octan-1-yl)(4,4-difluoropiperidin-1-yl)methanone], the IC50 fell in the range of 20 to 100 nM.

As to `CC(C)(C)C(=O)N1CCC(CS(=O)(=O)c2ccc(OC/C(=C/F)CN)cc2)CC1` [compound 41, (E)-1-(4-(((4-((2-(aminomethyl)-3-fluoroallyl)oxy)phenyl)sulfonyl)methyl)piperidin-1-yl)-2,2-dimethylpropan-1-one], the half-maximal inhibitory concentration (IC50) is 20 to 100 nM.

With `COCCOCS(=O)(=O)c1ccc(OC/C(=C/F)CN)cc1` [compound 29, (E)-3-fluoro-2-((4-(((2-methoxyethoxy)methyl)sulfonyl)phenoxy)methyl)prop-2-en-1-amine], the IC50 lay within 20 to 100 nM.

For `NC/C(=C\F)COc1ccc(S(=O)(=O)CC2CCN(C(=O)C3CC3)CC2)c(Cl)c1` [compound 60, (E)-(4-(((4-((2-(aminomethyl)-3-fluoroallyl)oxy)-2-chlorophenyl)sulfonyl)methyl)piperidin-1-yl)(cyclopropyl)methanone], the IC50 fell in the range of 20 to 100 nM.

In the case of `COCC(COC)OCS(=O)(=O)c1ccc(OC/C(=C/F)CN)cc1` [compound 36, (E)-2-((4-((((1,3-dimethoxypropan-2-yl)oxy)methyl)sulfonyl)phenoxy)methyl)-3-fluoroprop-2-en-1-amine], the half-inhibitory concentration (IC50) is 20 to 100 nM.

`CN(C(=O)C1CC1)C12CCC(CS(=O)(=O)c3ccc(OC/C(=C/F)CN)cc3)(CC1)CC2` [compound 78, (E)-N-(4-(((4-((2-(aminomethyl)-3-fluoroallyl)oxy)phenyl)sulfonyl)methyl)bicyclo[2.2.2]octan-1-yl)-N-methylcyclopropanecarboxamide]: the IC50 was in the range of 20 to 100 nM.

With `CC(C)C(=O)N1CC(CS(=O)(=O)c2ccc(OC/C(=C/F)CN)cc2)C1` [compound 52, (E)-1-(3-(((4-((2-(aminomethyl)-3-fluoroallyl)oxy)phenyl)sulfonyl)methyl)azetidin-1-yl)-2-methylpropan-1-one], the 50% inhibitory concentration (IC50) lay in the range of 20 to 100 nM.

Take `CC1(COCS(=O)(=O)c2ccc(OC/C(=C/F)CN)cc2)CCOCC1` [compound 31, (E)-3-fluoro-2-((4-((((4-methyltetrahydro-2H-pyran-4-yl)methoxy)methyl)sulfonyl)phenoxy)methyl)prop-2-en-1-amine]: the IC50 was in the range of 20 to 100 nM.

`C[C@@H](CS(=O)(=O)c1ccc(OC/C(=C/F)CN)cc1)N1CCCCC1=O` [compound 108, (S,E)-1-(1-((4-((2-(aminomethyl)-3-fluoroallyl)oxy)phenyl)sulfonyl)propan-2-yl)piperidin-2-one]: the IC50 lay in the range of 20 to 100 nM.

In the case of `COC1(CS(=O)(=O)c2ccc(OC/C(=C/F)CN)cc2)CCOCC1` [compound 11, (E)-3-fluoro-2-((4-(((4-methoxytetrahydro-2H-pyran-4-yl)methyl)sulfonyl)phenoxy)methyl) prop-2-en-1-amine], the IC50 is 20 to 100 nM.

`CC1(C)COC(CS(=O)(=O)c2ccc(OC/C(=C/F)CN)cc2)CO1` (stereo not drawn) [compound 2, (E)-2-((4-(((5,5-dimethyl-1,4-dioxan-2-yl)methyl)sulfonyl)phenoxy)methyl)-3-fluoroprop-2-en-1-amine]: the half-inhibitory concentration (IC50) was 20 to 100 nM.

For the compound `CC(C)N1CCN(CS(=O)(=O)c2ccc(OC/C(=C/F)CN)cc2)C(=O)C1` [compound 135, (E)-1-(((4-((2-(aminomethyl)-3-fluoroallyl)oxy)phenyl)sulfonyl)methyl)-4-isopropylpiperazin-2-one], the IC50 was 20 to 100 nM.

In the case of `NC/C(=C\F)COc1ccc(S(=O)(=O)CC23CCC(C4(NC(=O)C5CC5)CC4)(CC2)CC3)cc1` [compound 16, (E)-N-(1-(4-(((4-((2-(aminomethyl)-3-fluoroallyl)oxy)phenyl)sulfonyl)methyl)bicyclo[2.2.2]octan-1-yl)cyclopropyl) cyclopropanecarboxamide], the concentration for half-maximal inhibition (IC50) was 20 to 100 nM.

As to `NC/C(=C\F)COc1ccc(S(=O)(=O)CC2(CN3CCCCC3=O)CC2)cc1` [compound 106, (E)-1-((1-(((4-((2-(aminomethyl)-3-fluoroallyl)oxy)phenyl)sulfonyl)methyl)cyclopropyl)methyl)piperidin-2-one], the half-maximal inhibitory concentration (IC50) is 20 to 100 nM.
